Assay results taken from patent publication US9102925B2, “Compositions and methods for treating or preventing conditions and diseases associated with Mannheimia haemolytica” (Washington State University, priority 2009, dated 2015).
“And” between values parts separate entries of the source, which are not always exact repeats. Equal entries are not always repeated. “Also recorded” adds a separate entry of the source. Peptide text beside a SMILES is read from it.

Key:
[1] = tested on: M. haemolytica serotype-1 strain SH789; experiment: Calf challenge model: endobronchial inoculation of M. haemolytica with or without peptide; format: in vivo, Mannheimia haemolytica; settings: for Gross pneumonic lesions as % of total lung volume, Lesion (%), individual calf: 2 mg peptide with 5×10^9 CFU M. haemolytica endobronchially, necropsy 90 hours post-inoculation; for Number of M. haemolytica isolated from the lungs at necropsy, individual calf / Number of M. haemolytica isolated from the lungs at necropsy, Mean / Gross pneumonic lesions as % of total lung volume, Mean (%): 2 mg peptide with 5×10^9 CFU endobronchially; for Duration of nasal discharge post-inoculation: study period 90 hours; for Number of M. haemolytica isolated from the lungs at necropsy, Mean: group mean; for Number of M. haemolytica isolated from the lungs at necropsy, Mean / Gross pneumonic lesions as % of total lung volume, Mean (%): 4 calves; for Gross pneumonic lesions as % of total lung volume, Mean (%): group mean±SEM, 90 hours
Experimental: M. Haemolytica serotype-1 strain SH789, isolated from the pneumonic lung of a calf, was streaked on blood agar plate and incubated overnight at 37° C. The following day few colonies were transferred to 3 ml of pre-warmed brain heart infusion (BHI) broth and incubated for 3 hours at 37° C. with constant shaking (200 cycles/minute). Two BHI agar plates were ‘lawned’ with this bacterial culture using sterile cotton swabs and incubated overnight at 37° C. The following day (day of inoculation) M. haemolytica was harvested from the BHI agar plates and transferred to 40 ml of pre-warmed BHI broth in a 250 ml flask, and incubated for 2.5 hours at 37° C. with constant shaking to obtain cultures in the logarithmic phase of growth. The culture was centrifuged at 6000×g at 20° C. for 30 minutes and the pellet was washed once with RPMI 1640 (without phenol red) medium. The bacterial pellet was re-suspended in 4 ml of RPMI 1640 (without phenol red), and 1 ml of this culture was added to 50 ml of pre-warmed RPMI 1640 (without phenol red) containing L-glutamine (1 ml L-glutamine/100 ml RPMI) in a 250 ml flask. Bacteria were incubated for 3 hours at 37° C. with constant shaking to obtain logarithmic phase culture and the optical density (OD) was measured. The culture was appropriately diluted to obtain a concentration of 1×10^9 CFU of M. haemolytica per ml. Five ml of this preparation per calf was used for endobronchial challenge. The bacterial concentration was confirmed the following day by culturing diluted aliquots of the inoculum on BHI agar and counting the resulting colonies.
The peptide (P17) containing amino acids 5-17 of bovine CD18 (NH2-RPQLLLLAGLLAL-OH) (SEQ ID NO.:71), and the peptide (PSC) containing the same amino acids as peptide P17 but in a randomly scrambled sequence (NH2-LRALLPLQLLAGL-OH) (SEQ ID NO.:72), were synthesized at Neopeptide (Cambridge, Mass.). Both peptides were re-suspended in dimethysulfoxide (ATCC) at a concentration of 20 mg/ml and stored at −20° C. until used. Based on the results of in vitro neutralization of Lkt by peptide P17, each calf was endobronchially inoculated with 2 mg of peptide in 5 ml of RPMI mixed with 5×10^9 CFU of M. haemolytica in 5 ml of RPMI.
All experimental protocols were approved by the Institutional Animal Care and Use Committee (IACUC) at Washington State University before the onset of the study. Twelve Holstein calves were randomly assigned to three experimental groups. Calves were matched for age when assigned into three groups. Prior to inoculation, serum samples and pharyngeal and nasal swabs were collected from all the calves. Group I calves received endobronchial injections of 5×10^9 CFU of M. haemolytica in 10 ml of RPMI. Group II calves received 5×10^9 CFU of M. haemolytica and 2 mg of peptide PSC in 10 ml of RPMI. Group III calves received 5×10^9 CFU of M. haemolytica and 2 mg of peptide P17 in 10 ml of RPMI. The inoculum was flushed down with an additional 10 ml of RPMI in all calves. Clinical disease in each calf was scored at different time points post-inoculation.
Physical examination of each calf was performed immediately prior to experimental infection and at 6, 18, 24, 42, 48, 66, 72, and 90 hours post-inoculation. Signs of clinical disease were allocated points according to the scoring system followed by Malazdrewich et al (2003; Table 3).
On necropsy lungs were removed and gross pneumonic lesion development in each lobe of lung was observed. The entire lung from each animal was sliced at 1 cm thickness and the total and pneumonic lesion areas were traced onto transparent acetate sheets. The traced portions were scanned into ImgaeJ, NIH Image (National Institute of Health; Nethesda, Md.), which was used to measure areas representing both the total serial section and the gross pneumonic lesions within it. […]

[2] = molecular target: T1, M. haemolytica leukotoxin (Lkt) (Mannheimia haemolytica, UniProt P16535)
[3] = molecular target: T1, M. haemolytica leukotoxin (Lkt); experiment: cell-based

| Compound | Gross pneumonic lesions as % of total lung volume, Lesion (%), individual calf ([1]; calves) | Number of M. haemolytica isolated from the lungs at necropsy, individual calf ([1]; calves, necropsy 90 hours) | Duration of nasal discharge post-inoculation ([1]; calves) | Number of M. haemolytica isolated from the lungs at necropsy, Mean ([1]; necropsy 90 hours) | Gross pneumonic lesions as % of total lung volume, Mean (%) [1] | Leukotoxic activity of supernatant fluids from M. haemolytica cultures incubated with peptide [2] | IC50 [3] | M. haemolytica in lungs, fold less than in Group I (bacteria only) and Group II (PSC) ([1]; calves, necropsy 90 hours, P<0.001) | Gross pneumonic lesions (percent lung volume) compared between groups ([1]; calves, necropsy 90 hours, P=0.9) | Mean clinical score compared with other groups at 24 hours post-inoculation ([1]; calves, 24 hours post-inoculation, P<0.05) | Total clinical disease scores compared with Group I and II ([1]; calves, scored 6 to 90 hours post-inoculation) | Inhibition of Lkt-induced cytolysis of bovine PMNs [3] | Inhibition of Lkt-induced cytolysis of ruminant leukocytes [3] |
| --- | --- | --- | --- | --- | --- | --- | --- | --- | --- | --- | --- | --- | --- |
| NH2-LRALLPLQLLAGL-OH (H-LRALLPLQLLAGL-OH) [PSC, reference compound] | 4.07% and 10.70% and 9.01% and 24.57% | 1.89 × 10^7 CFU per gram of lung tissue and 6.73 × 10^5 CFU per gram of lung tissue and 6.50 × 10^7 CFU per gram of lung tissue and 1.87 × 10^7 CFU per gram of lung tissue | throughout the study period | 2.58 ± 1.374 × 10^7 CFU per gram of lung tissue | 12.09 ± 4.39% | had significant leukotoxic activity |  |  |  |  |  |  |  |
| CC(C)C[C@H](NC(=O)CNC(=O)[C@H](C)NC(=O)[C@H](CC(C)C)NC(=O)[C@H](CC(C)C)NC(=O)[C@H](CC(C)C)NC(=O)[C@H](CC(C)C)NC(=O)[C@H](CCC(N)=O)NC(=O)[C@@H]1CCCN1C(=O)[C@@H](N)CCCNC(=N)N)C(=O)N[C@@H](CC(C)C)C(=O)N[C@@H](C)C(=O)N[C@@H](CC(C)C)C(=O)N[C@@H](CCC(N)=O)C(=O)N[C@@H](CO)C(=O)N[C@H](C(=O)N[C@@H](CC(C)C)C(=O)N[C@@H](CO)C(=O)N[C@@H](CCC(N)=O)C(=O)N[C@@H](CCC(=O)O)C(=O)O)C(C)C [P5] (H-RPQLLLLAGLLALQSVLSQE-OH) |  |  |  |  |  |  | 5.55 µM |  |  |  |  |  |  |
| CSCC[C@H](N)C(=O)N[C@@H](CC(C)C)C(=O)N[C@@H](CCCNC(=N)N)C(=O)N[C@@H](CCC(N)=O)C(=O)N[C@@H](CCCNC(=N)N)C(=O)N1CCC[C@H]1C(=O)N[C@@H](CCC(N)=O)C(=O)N[C@@H](CC(C)C)C(=O)N[C@@H](CC(C)C)C(=O)N[C@@H](CC(C)C)C(=O)N[C@@H](CC(C)C)C(=O)N[C@@H](C)C(=O)NCC(=O)N[C@@H](CC(C)C)C(=O)N[C@@H](CC(C)C)C(=O)N[C@@H](C)C(=O)N[C@@H](CC(C)C)C(=O)N[C@@H](CCC(N)=O)C(=O)N[C@@H](CO)C(=O)N[C@H](C(=O)O)C(C)C [P1] (H-MLRQRPQLLLLAGLLALQSV-OH) |  |  |  |  |  |  | 11.6 µM |  |  |  |  |  |  |
| NH2-RPQLLLLAGLLAL-OH (H-RPQLLLLAGLLAL-OH; listed as Bos taurus) [P17] | 15.67% and 2.7% and 13.22% and 8.51% | 5.29 × 10^3 CFU per gram of lung tissue and 4.92 × 10^2 CFU per gram of lung tissue and 5.70 × 10^4 CFU per gram of lung tissue and 8.00 × 10^2 CFU per gram of lung tissue | up to 24 hours | 1.589 ± 1.374 × 10^4 CFU per gram of lung tissue | 10.53 ± 3.02% | did not exhibit significant leukotoxic activity |  | 100- to 1000 fold and 100 to 1000 fold | not statistically significant; also recorded: no less than those in calves inoculated with the control peptide PSC | statistically significantly lower | lower than those for group I and II at all time points except 48 hours | strongly inhibited | effectively inhibited |
